Source: ChEMBL document CHEMBL1159383, “Tasipeptins A and B: new cytotoxic depsipeptides from the marine cyanobacterium Symploca sp” (J Nat Prod, 2003)

Test system: KB
Assay: Cytotoxicity against human KB cells
Assay type: functional, cell-based

`CCCC(=O)N[C@H](C(=O)N[C@@H]1C(=O)N[C@@H](CC(C)C)C(=O)N[C@H]2CC[C@@H](O)N(C2=O)[C@@H](CC(C)C)C(=O)N(C)[C@@H](Cc2ccccc2)C(=O)N[C@@H](C(C)C)C(=O)O[C@@H]1C)C(C)C` [TASIPEPTIN A] showed an IC50 of 930 nM.

Compound `CCCC(=O)N[C@@H]1C(=O)N[C@@H](CC(C)C)C(=O)N[C@H]2CC[C@@H](O)N(C2=O)[C@@H](CC(C)C)C(=O)N(C)[C@@H](Cc2ccccc2)C(=O)N[C@@H](C(C)C)C(=O)O[C@@H]1C` [TASIPEPTIN B] has an IC50 of 820 nM.
